8 molecules from publication PMC6060383, “Synthesis and pharmacological evaluation of novel isoquinoline N-sulphonylhydrazones designed as ROCK inhibitors” (Journal of Enzyme Inhibition and Medicinal Chemistry, 2018) can be followed below.

≈ marks a conversion by molar mass, not a printed value. Bounds are passed on as bounds.

The target of series [1] is T1, ROCK1 human recombinant enzyme (Homo sapiens, UniProt Q13464).
T1 construct: purchased EUROFINS-CEREP France (contract assay, study numbers 100033685 and 100040481); host or cells: Sf9 insect cells
Nature of the series: ROCK1 inhibition assay (Eurofins-Cerep, phosphorylation of Ulight-RRRSLLE substrate). Format: biochemical. As to conditions: for inhibition at 3 µM: screening concentration 3 μM, average of two experiments. The method, then:
(§1) The analysis was performed using software developed at Cerep (Hill software) and GraphPad Prism® 5.0 (GraphPad Software, Inc., San Diego, CA) and validated through comparison with results generated using the SigmaPlot 4.0 software.
(§2) Prior to this assay, we evaluated the solubility of these compounds in water (buffer pH 7.4) to ensure that the inhibition percentages were not influenced by the precipitation of the compounds under test conditions.

Series [2] has as its target T2, ROCK2 human recombinant enzyme (Homo sapiens, UniProt O75116).
T2 construct: purchased EUROFINS-CEREP France (contract assay, study numbers 100033685 and 100040481); host or cells: Sf21 insect cells
Nature of the series: ROCK2 inhibition assay (Eurofins-Cerep, phosphorylation of Ulight-RRRSLLE substrate). As to conditions: for inhibition at 3 µM: screening concentration 3 μM, average of two experiments. Format: biochemical. The method, then: as §1, §2

The nature of series [3]: Water solubility assay (UV spectrophotometric method). As to conditions: aqueous buffer, thermodynamic from solid, water (buffer pH 7.4), stirring 4 h at 37 °C. Format: physicochemical. As to the method: The solubility assay was performed considering the absorptivity of compounds under ultraviolet spectroscopy as described by Schneider et al.[20] Assay wavelength was determined through λmax characteristic of each compound. Saturated aqueous solutions were prepared (0.8–1.0 mg/mL) and kept under stirring for 4 h at 37 °C. The supernatant was filtered in […] filters and transferred to a quartz cuvette (10 mm) for spectra acquisition. Solubility was determined by linear regression used as Excel graph plots, solutions were prepared by dilutions of the original solution in methanol. Data were collected in triplicate and the mean values were used to create the graph plots. The correlation coefficient (R^2) values were between 0.9982 and 1.
The N-sulphonylhydrazone derivatives 5a–h were evaluated for their ability to inhibit both ROCK1 and ROCK2 isoforms by measuring the phosphorylation of the Ulight-RRRSLLE substrate using human recombinant enzymes expressed in Sf9[23] and Sf21^24 cells, respectively. Prior to this assay, we evaluated the solubility of these compounds in water (buffer pH 7.4) to ensure that the inhibition percentages were not influenced by the precipitation of the compounds under test conditions. The enzymatic assay was initially performed at a screening concentration of 3 μM, which is capable of guaranteeing the solubility of most of the compounds, and the obtained results are shown in Table 2.

Setting [4] is: ROCK inhibition assays, 1 to 50 µM.

T2 sequence (O75116 1-543 limits assumed): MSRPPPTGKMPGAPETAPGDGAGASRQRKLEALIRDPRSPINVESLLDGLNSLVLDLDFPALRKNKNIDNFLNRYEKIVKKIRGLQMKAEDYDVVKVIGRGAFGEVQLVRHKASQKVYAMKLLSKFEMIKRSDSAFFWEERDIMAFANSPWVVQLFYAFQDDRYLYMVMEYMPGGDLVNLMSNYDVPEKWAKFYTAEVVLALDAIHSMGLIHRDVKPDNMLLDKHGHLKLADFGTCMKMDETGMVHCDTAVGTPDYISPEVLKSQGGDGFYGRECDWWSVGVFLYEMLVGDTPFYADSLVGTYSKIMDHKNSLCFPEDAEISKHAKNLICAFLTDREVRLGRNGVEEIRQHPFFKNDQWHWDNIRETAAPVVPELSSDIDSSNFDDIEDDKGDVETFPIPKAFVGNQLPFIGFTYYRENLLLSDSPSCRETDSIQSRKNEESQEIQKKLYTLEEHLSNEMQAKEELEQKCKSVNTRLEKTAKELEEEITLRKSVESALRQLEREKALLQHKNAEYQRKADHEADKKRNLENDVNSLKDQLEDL
T1 sequence (Q13464 whole entry): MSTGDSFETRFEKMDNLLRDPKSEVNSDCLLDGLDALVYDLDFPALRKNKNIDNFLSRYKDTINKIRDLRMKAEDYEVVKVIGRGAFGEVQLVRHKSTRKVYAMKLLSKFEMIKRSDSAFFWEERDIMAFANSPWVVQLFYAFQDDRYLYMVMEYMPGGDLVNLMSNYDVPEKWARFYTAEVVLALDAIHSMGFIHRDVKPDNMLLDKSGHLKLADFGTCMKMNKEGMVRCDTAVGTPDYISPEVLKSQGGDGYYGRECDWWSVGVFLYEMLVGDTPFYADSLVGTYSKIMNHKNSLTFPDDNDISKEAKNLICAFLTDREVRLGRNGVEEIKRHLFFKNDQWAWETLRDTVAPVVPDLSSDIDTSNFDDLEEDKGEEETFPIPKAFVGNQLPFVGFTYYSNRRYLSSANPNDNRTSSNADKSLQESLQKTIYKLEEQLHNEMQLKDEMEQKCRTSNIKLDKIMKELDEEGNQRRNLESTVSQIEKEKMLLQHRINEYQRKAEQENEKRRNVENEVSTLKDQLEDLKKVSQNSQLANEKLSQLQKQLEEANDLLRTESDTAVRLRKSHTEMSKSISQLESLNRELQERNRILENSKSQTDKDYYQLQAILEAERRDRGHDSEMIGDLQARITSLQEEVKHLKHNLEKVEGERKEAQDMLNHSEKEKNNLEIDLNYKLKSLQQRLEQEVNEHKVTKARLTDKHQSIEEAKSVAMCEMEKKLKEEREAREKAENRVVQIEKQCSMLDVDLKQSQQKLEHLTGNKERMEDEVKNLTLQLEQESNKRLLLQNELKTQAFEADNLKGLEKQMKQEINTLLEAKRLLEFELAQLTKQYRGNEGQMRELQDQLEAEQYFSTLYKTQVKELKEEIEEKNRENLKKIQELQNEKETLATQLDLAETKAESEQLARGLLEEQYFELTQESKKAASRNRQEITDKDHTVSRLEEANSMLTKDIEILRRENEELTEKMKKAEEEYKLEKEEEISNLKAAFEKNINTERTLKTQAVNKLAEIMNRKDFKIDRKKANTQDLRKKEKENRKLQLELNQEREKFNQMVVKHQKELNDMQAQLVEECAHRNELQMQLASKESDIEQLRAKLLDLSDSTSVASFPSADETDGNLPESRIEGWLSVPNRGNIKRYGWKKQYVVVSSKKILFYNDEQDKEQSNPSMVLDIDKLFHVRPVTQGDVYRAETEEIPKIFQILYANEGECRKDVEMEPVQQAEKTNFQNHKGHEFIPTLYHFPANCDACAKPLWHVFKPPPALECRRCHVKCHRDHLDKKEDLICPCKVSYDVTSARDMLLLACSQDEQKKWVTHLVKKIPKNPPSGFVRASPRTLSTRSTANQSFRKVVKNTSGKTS

The molecule `O=S(=O)(N/N=C/c1ccc(-c2ccccc2)cc1)c1cccc2cnccc12` [Compound 5g, (E)-N′-([1,1'-biphenyl]-4-ylmethylene)isoquinoline-5-sulphonohydrazide] had a melting point of 166 °C. For the same molecule, the inhibition at 3 µM in series [1] is -1.1%. The inhibition at 3 µM in series [2] is 2.4%. The molecule also had a solubility at 4 h in series [3] below 0.5 µM.

In the case of `O=S(=O)(N/N=C/c1cccnc1)c1cccc2cnccc12` [Compound 5d, (E)-N′-(pyridin-3-ylmethylene)isoquinoline-5-sulphonohydrazide], the melting point turned out to be 168 °C. For the same molecule, the inhibition at 3 µM in series [1] turned out to be 4.5%. Moreover, the inhibition at 3 µM in series [2] was determined as 7.6%. The molecule further displayed a solubility at 4 h in series [3] above 64 µM.

Molecule `CC(=O)Nc1ccc(/C=N/NS(=O)(=O)c2cccc3cnccc23)cc1` [Compound 5e, (E)-N-(4-((2-(isoquinolin-5-ylsulphonyl)hydrazono)methyl)phenyl)acetamide] registered a melting point of 173 °C. Also, in series [1], the inhibition at 3 µM was determined as 4.6%. In addition, in series [2], the inhibition at 3 µM was -9.1%. In addition, in series [3], the solubility at 4 h turned out to be 4.3 µM (≈ 1.58 µg/mL).

In turn, `CN(C)c1ccc(/C=N/NS(=O)(=O)c2cccc3cnccc23)cc1` [Compound 5a, (E)-N′-(4-(dimethylamino)benzylidene)isoquinoline-5-sulphonohydrazide] yielded a melting point of 165 °C. Also, the inhibition at 3 µM in series [1] amounted to 4.1%. For the same molecule, in series [2], the inhibition at 3 µM was 0.6%. Further, the concentration in solution in series [3] (solubility at 4 h) came to 5.4 µM (≈ 1.91 µg/mL).

With `O=C(N/N=C/c1ccccc1)c1cccc2cnccc12` [Compound 10, (E)-N′-benzylidene isoquinoline-5-carbohydrazide], the “ROCK1 inhibition (result in words)” value in series [1] (setting [4]) was “completely inactive”. Also, the IC50 in series [1] (human recombinant ROCK1, five-point assay, 1 to 50 µM, mean of two experiments) is above 50 µM; in series [2] (human recombinant ROCK2, five-point assay, 1 to 50 µM, mean of two experiments) it was above 50 µM. Moreover, the “ROCK2 inhibition (result in words)” value in series [2] (setting [4]) is “completely inactive”.

Take `O=[N+]([O-])c1ccc(/C=N/NS(=O)(=O)c2cccc3cnccc23)cc1` [Compound 5c, (E)-N′-(4-nitrobenzylidene)isoquinoline-5-sulphonohydrazide]: the melting point came out at 168 °C. Moreover, the inhibition at 3 µM in series [1] was 1.1%. For the same molecule, the inhibition at 3 µM in series [2] amounted to 8.1%. For the same molecule, in series [3], the solubility at 4 h was found to be 26 µM (≈ 9.27 µg/mL).

In turn, `O=S(=O)(N/N=C/c1ccc(B(O)O)cc1)c1cccc2cnccc12` [Compound 5f, (E)-(4-((2-(isoquinolin-5-ylsulphonyl)hydrazono)methyl)phenyl)boronic acid] gave a melting point above 250 °C. In series [1], the inhibition at 3 µM is 2.7%. For the same molecule, the inhibition at 3 µM in series [2] is 7.3%. In series [3], the solubility at 4 h was determined as 58 µM (≈ 20.6 µg/mL).

In turn, `Cl.O=S(=O)(N/N=C/C1CCNCC1)c1cccc2cnccc12` [Compound 5h, (E)-N′-(piperidin-4-ylmethylene)isoquinoline-5-sulphonohydrazide hydrochloride] returned a melting point of 186 °C. In addition, the inhibition at 3 µM in series [1] stood at 6.9%. For the same molecule, the inhibition at 3 µM in series [2] amounted to 3.9%. This molecule displayed a solubility at 4 h in series [3] above 84.5 µM.

A word on the inhibition: it is the drop in the measured response relative to a control, in per cent. The term solubility denotes how much of the substance goes into solution per volume. A higher solubility goes with a readily soluble substance. Broadly, the melting point is the temperature of the solid-liquid transition. The IC50 is the point on the concentration scale where inhibition reaches its midpoint.
